Key:
[1] = Half life in Wistar rat at 0.3 to 1 mg/kg, iv administered as bolus dose by LC-MS/MS analysis; format: ADME, organism-based; details: in vivo, dose 0.3-1 mg/kg
[2] = Oral bioavailability in Wistar rat at 1 to 3 mg/kg administered via gavage using EtOH/PEG400/H2O 10/40/50 formulation by LC-MS/MS analysis; format: ADME, organism-based; details: in vivo, dose 1-3 mg/kg
[3] = Clearance in Wistar rat at 0.3 to 1 mg/kg, iv administered as bolus dose or 15 mins infusion by LC-MS/MS analysis; format: ADME, organism-based; details: in vivo, 0.25 h, dose 0.3-1 mg/kg
Cytochrome P450 3A4 = Cytochrome P450 3A4 (Homo sapiens, UniProt P08684); experiment: Inhibition of CYP3A4 in human liver microsomes using midazolam as substrate incubated for 10 mins in presence of NADPH generating system by LC-MS/MS analysis
Cytochrome P450 3A4, sequence (P08684 whole entry): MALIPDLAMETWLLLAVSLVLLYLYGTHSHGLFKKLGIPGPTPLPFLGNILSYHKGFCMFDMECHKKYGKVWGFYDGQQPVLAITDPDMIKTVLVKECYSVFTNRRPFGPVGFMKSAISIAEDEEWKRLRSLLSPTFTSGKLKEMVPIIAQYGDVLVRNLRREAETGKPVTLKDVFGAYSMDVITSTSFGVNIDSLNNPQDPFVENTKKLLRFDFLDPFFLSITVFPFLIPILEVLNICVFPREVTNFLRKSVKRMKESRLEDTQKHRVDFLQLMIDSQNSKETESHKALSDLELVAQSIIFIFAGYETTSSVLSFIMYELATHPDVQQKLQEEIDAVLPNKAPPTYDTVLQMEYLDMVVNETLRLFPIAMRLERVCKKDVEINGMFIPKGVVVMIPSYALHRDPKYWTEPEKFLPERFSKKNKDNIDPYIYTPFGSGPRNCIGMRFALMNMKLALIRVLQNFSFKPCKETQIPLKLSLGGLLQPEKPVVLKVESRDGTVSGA

[4] = Lipophilicity, log D of compound at pH 7.5 by HPLC analysis; details: buffer
[5] = Toxicity in Wistar rat up to 200 mg/kg/day, po administered for 14 days; format: organism-based; details: in vivo, 336 h, time 14 day
[6] = Induction of CYP3A4 mRNA expression in human hepatocytes supplemented with fresh medium containing compounds daily for 2 days measured 24 hrs post last dose by qRT-PCR analysis; details: 72 h

half-life [1]: 2.6 h | bioavailability [2]: 90% | CL [3]: 43.3 mL/min/kg | IC50 (Cytochrome P450 3A4): > 20 µM | logD [4]: 2
Structure (SMILES): Cc1c(-c2ccccc2)nc2ccc(Br)cc2c1C(=O)NCC(CC(=O)O)c1ccccc1Cl (single isomer, unassigned; (+))
Activity [5]: Non-Toxic | NOAEL [6]: 6 µM
